Source: patent US10882844B2, “Compounds useful as immunomodulators” (Bristol-Myers Squibb Company, priority 2016, dated 2021)
pIC50: −log10 of the molar value. Where two headings read alike, the source gives them in different places.

Target: PD-1/PD-L1 (Homo sapiens (Human), UniProt Q9NZQ7)
Test: PD-1/PD-L1 Homogenous Time-Resolved Fluorescence (HTRF) binding assay
Details: PD-1-Ig / PD-L1-His HTRF, read-out: Range or IC50
From the text: The ability of the compounds of formula (I) to bind to PD-L1 was investigated using a PD-1/PD-L1 Homogenous Time-Resolved Fluorescence (HTRF) binding assay.
Homogenous Time-Resolved Fluorescence (HTRF) binding assay.
The interaction of PD-1 and PD-L1 can be assessed using soluble, purified preparations of the extracellular domains of the two proteins. The PD-1 and PD-L1 protein extracellular domains were expressed as fusion proteins with detection tags, for PD-1, the tag was the Fc portion of Immunoglobulin (PD-1-Ig) and for PD-L1 it was the 6 histidine motif (PD-L1-His). All binding studies were performed in an HTRF assay buffer consisting of dPBS supplemented with 0.1% […] bovine serum albumin and 0.05% (v/v) Tween-20. For the h/PD-L1-His binding assay, inhibitors were pre-incubated with PD-L1-His (10 nM final) for 15 m in 4 μl of assay buffer, followed by addition of PD-1-Ig (20 nM final) in 1 μl of assay buffer and further incubation for 15 m. HTRF detection was achieved using europium crypate-labeled anti-Ig (1 nM final) and allophycocyanin (APC) labeled anti-His (20 nM final). Antibodies were diluted in HTRF detection buffer and 5 μl was dispensed on top of the binding reaction. The reaction mixture was allowed to equilibrate for 30 minutes and the resulting signal (665 nm/620 nm ratio) was obtained using an EnVision fluorometer. Additional binding assays were established between the human proteins PD-1-Ig/PD-L2-His (20 & 5 nM, respectively) and CD8O-His/PD-L1-Ig (100 & 10 nM, respectively).
Recombinant Proteins: Human PD-1 (25-167) with a C-terminal human Fc domain of immunoglobulin G (Ig) epitope tag [hPD-1 (25-167)-3S-IG] and human PD-L1 (18-239) with a C-terminal His epitope tag [hPD-L1(18-239)-TVMV-His] were expressed in HEK293T cells and purified sequentially by ProteinA affinity chromatography and size exclusion chromatography. Human PD-L2-His and CD80-His was obtained through commercial sources.
The table below lists the IC50 values for representative examples of this disclosure measured in the PD-1/PD-L1 Homogenous Time-Resolved Fluorescence (HTRF) binding assay. Ranges are as follows: A=0.18 nM-0.99 nM; B=1.0 nM-5.0 nM; C=5.01 nM-10.1 nM; D=10.2 nM-200 nM; E=201 nM→10 uM

PD-1/PD-L1, sequence (Q9NZQ7 other isoform, or with tags, fused parts or gaps): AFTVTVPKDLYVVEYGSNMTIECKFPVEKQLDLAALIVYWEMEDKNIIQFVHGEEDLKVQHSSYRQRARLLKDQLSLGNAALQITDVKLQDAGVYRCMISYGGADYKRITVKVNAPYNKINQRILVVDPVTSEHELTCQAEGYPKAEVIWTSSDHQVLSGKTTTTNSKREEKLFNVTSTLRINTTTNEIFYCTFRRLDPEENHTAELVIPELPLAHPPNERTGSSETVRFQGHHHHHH

Row | pIC50 (value given as range class) | pIC50 (value given as number) | SMILES
1 | 5.00 to 6.70 | – | Cc1c(COc2cc(OCc3cncc(C#N)c3)c(CN3CCCC[C@H]3C(=O)O)cc2Cl)cccc1-c1ccc2oc(C3CCC(C(=O)O)CC3)nc2c1 (single isomer, unassigned) [Example 1026]
2 | 9.00 to 9.74 | – | Cc1c(COc2cc(OCc3cncc(C#N)c3)c(CN3CCCC[C@H]3C(=O)O)cc2Cl)cccc1-c1ccc2oc(C3CCN(C)CC3)nc2c1 [Example 1001, (S)-1-(5-chloro-2-((5-cyanopyridin-3-yl)methoxy)-4-((2-methyl-3-(2-(1-methylpiperidin-4-yl)benzo[d]oxazol-5-yl)benzyl)oxy)benzyl)piperidine-2-carboxylic Acid]
3 | 8.30 to 9.00 | – | Cc1c(COc2cc(OCc3cncc(C#N)c3)c(CN3CCCC[C@H]3C(=O)O)cc2Cl)cccc1-c1ccc2nc(C3CCN(C)CC3)oc2c1 [Example 1002, (S)-1-(5-chloro-2-((5-cyanopyridin-3-yl)methoxy)-4-((2-methyl-3-(2-(1-methylpiperidin-4-yl)benzo[d]oxazol-6-yl)benzyl)oxy)benzyl)piperidine-2-carboxylic Acid]
4 | 8.30 to 9.00 | – | Cc1c(COc2cc(OCc3cncc(C#N)c3)c(CN3CCCC[C@H]3C(=O)O)cc2Cl)cccc1-c1ccc2oc(C3CCCN(C)C3)nc2c1 (stereo partly drawn) [Example 1003, (2S)-1-(5-chloro-2-((5-cyanopyridin-3-yl)methoxy)-4-((2-methyl-3-(2-(1-methylpiperidin-3-yl)benzo[d]oxazol-5-yl)benzyl)oxy)benzyl)piperidine-2-carboxylic Acid]
5 | 8.30 to 9.00 | – | Cc1c(COc2cc(OCc3cncc(C#N)c3)c(CN3CCCC[C@H]3C(=O)O)cc2Cl)cccc1-c1ccc2oc(C3CCNCC3)nc2c1 [Example 1004, (S)-1-(5-chloro-2-((5-cyanopyridin-3-yl)methoxy)-4-((2-methyl-3-(2-(piperidin-4-yl)benzo[d]oxazol-5-yl)benzyl)oxy)benzyl)piperidine-2-carboxylic Acid]
6 | 8.30 to 9.00 | – | Cc1c(COc2cc(OCc3cncc(C#N)c3)c(CN3CCCC[C@H]3C(=O)O)cc2Cl)cccc1-c1ccc2oc(C3CCN(C4CC4)CC3)nc2c1 [Example 1005, (S)-1-(5-chloro-2-((5-cyanopyridin-3-yl)methoxy)-4-((3-(2-(1-cyclopropylpiperidin-4-yl)benzo[d]oxazol-5-yl)-2-methylbenzyl)oxy)benzyl)piperidine-2-carboxylic Acid]
7 | – | 9.17 | Cc1c(COc2cc(OCc3cncc(C#N)c3)c(CN3CCCC[C@H]3C(=O)O)cc2Cl)cccc1-c1ccc2oc(C3CCN(C)C3)nc2c1 (stereo partly drawn) [Example 1008, (2S)-1-(5-chloro-2-((5-cyanopyridin-3-yl)methoxy)-4-((2-methyl-3-(2-(1-methylpyrrolidin-3-yl)benzo[d]oxazol-5-yl)benzyl)oxy)benzyl)piperidine-2-carboxylic Acid]
8 | 8.30 to 9.00 | – | Cc1c(COc2cc(OCc3cncc(C#N)c3)c(CN3CCCC[C@H]3C(=O)O)cc2Cl)cccc1-c1cc(C)c2oc(C3CCN(C)CC3)nc2c1 [Example 1009, (S)-1-(5-chloro-2-((5-cyanopyridin-3-yl)methoxy)-4-((2-methyl-3-(7-methyl-2-(1-methylpiperidin-4-yl)benzo[d]oxazol-5-yl)benzyl)oxy)benzyl)piperidine-2-carboxylic Acid]
9 | 8.30 to 9.00 | – | Cc1c(COc2cc(OCc3cncc(C#N)c3)c(CN3CCCC[C@H]3C(=O)O)cc2Cl)cccc1-c1ccc2oc(C3CCN(C)CC3)nc2c1C [Example 1010, (S)-1-(5-chloro-2-((5-cyanopyridin-3-yl)methoxy)-4-((2-methyl-3-(4-methyl-2-(1-methylpiperidin-4-yl)benzo[d]oxazol-5-yl)benzyl)oxy)benzyl)piperidine-2-carboxylic Acid]
10 | 8.30 to 9.00 | – | Cc1c(COc2cc(OCc3cncc(C#N)c3)c(CN3CCCC[C@H]3C(=O)O)cc2Cl)cccc1-c1ccc2oc(C3CCN(C(C)C)CC3)nc2c1 [Example 1013, (S)-1-(5-chloro-2-((5-cyanopyridin-3-yl)methoxy)-4-((3-(2-(1-isopropylpiperidin-4-yl)benzo[d]oxazol-5-yl)-2-methylbenzyl)oxy)benzyl)piperidine-2-carboxylic Acid]
11 | 9.00 to 9.74 | – | Cc1c(COc2cc(OCc3cncc(C#N)c3)c(CN3CCCC[C@H]3C(=O)O)cc2Cl)cccc1-c1ccc2oc(C3CCN(CC(=O)O)CC3)nc2c1 [Example 1016, (S)-1-(4-((3-(2-(1-(carboxymethyl)piperidin-4-yl)benzo[d]oxazol-5-yl)-2-methylbenzyl)oxy)-5-chloro-2-((5-cyanopyridin-3-yl)methoxy)benzyl)piperidine-2-carboxylic Acid]
12 | 9.00 to 9.74 | – | Cc1c(COc2cc(OCc3cncc(C#N)c3)c(CN3CCCC[C@H]3C(=O)O)cc2Cl)cccc1-c1ccc2oc(C3CCOCC3)nc2c1 [Example 1017, (S)-1-(5-chloro-2-((5-cyanopyridin-3-yl)methoxy)-4-((2-methyl-3-(2-(tetrahydro-2H-pyran-4-yl)benzo[d]oxazol-5-yl)benzyl)oxy)benzyl)piperidine-2-carboxylic Acid]

Continued, molecule first:

Row | SMILES | pIC50 (value given as range class) | pIC50 (value given as number)
13 | Cc1c(COc2cc(OCc3cncc(C#N)c3)c(CN3CCCC[C@H]3C(=O)O)cc2Cl)cccc1-c1ccc2oc(C3CCC(C(=O)O)CC3)nc2c1 (single isomer, unassigned) [Example 1025] | 9.00 to 9.74 | –
14 | Cc1c(COc2cc(OCc3cncc(C#N)c3)c(CN3CCCC[C@H]3C(=O)O)cc2Cl)cccc1-c1ccc2oc(C3CC4CCC(C3)N4)nc2c1 (stereo partly drawn) [Example 1006, (2S)-1-(4-((3-(2-(8-azabicyclo[3.2.1]octan-3-yl)benzo[d]oxazol-5-yl)-2-methylbenzyl)oxy)-5-chloro-2-((5-cyanopyridin-3-yl)methoxy)benzyl)piperidine-2-carboxylic Acid] | 8.30 to 9.00 | –
15 | Cc1c(COc2cc(OCc3cncc(C#N)c3)c(CN3CCCC[C@H]3C(=O)O)cc2Cl)cccc1-c1ccc2oc(-c3ccncc3)nc2c1 [Example 1007, (S)-1-(5-chloro-2-((5-cyanopyridin-3-yl)methoxy)-4-((2-methyl-3-(2-(pyridin-4-yl)benzo[d]oxazol-5-yl)benzyl)oxy)benzyl)piperidine-2-carboxylic Acid] | 8.30 to 9.00 | –
16 | Cc1c(COc2cc(OCc3cncc(C#N)c3)c(CN3CCCC[C@H]3C(=O)O)cc2Cl)cccc1-c1ccc2oc(C3(C)CCNCC3)nc2c1 [Example 1011, (S)-1-(5-chloro-2-((5-cyanopyridin-3-yl)methoxy)-4-((2-methyl-3-(2-(4-methylpiperidin-4-yl)benzo[d]oxazol-5-yl)benzyl)oxy)benzyl)piperidine-2-carboxylic Acid] | 8.30 to 9.00 | –
17 | CCN(CC)C1CCC(c2nc3cc(-c4cccc(COc5cc(OCc6cncc(C#N)c6)c(CN6CCCC[C@H]6C(=O)O)cc5Cl)c4C)ccc3o2)CC1 (stereo partly drawn) [Example 1012, (S)-1-(5-chloro-2-((5-cyanopyridin-3-yl)methoxy)-4-((3-(2-(4-(diethylamino)cyclohexyl)benzo[d]oxazol-5-yl)-2-methylbenzyl)oxy)benzyl)piperidine-2-carboxylic Acid] | 9.00 to 9.74 | –
18 | Cc1c(COc2cc(OCc3cncc(C#N)c3)c(CN3CCCC[C@H]3C(=O)O)cc2Cl)cccc1-c1ccc2oc(C3CC4CCC(C3)N4C)nc2c1 (stereo partly drawn) [Example 1014, (2S)-1-(5-chloro-2-((5-cyanopyridin-3-yl)methoxy)-4-((2-methyl-3-(2-(8-methyl-8-azabicyclo[3.2.1]octan-3-yl)benzo[d]oxazol-5-yl)benzyl)oxy)benzyl)piperidine-2-carboxylic Acid] | 8.30 to 9.00 | –
19 | Cc1c(COc2cc(OCc3cncc(C#N)c3)c(CN3CCCC[C@H]3C(=O)O)cc2Cl)cccc1-c1ccc2oc(C34CC(N)(C3)C4)nc2c1 [Example 1015, (S)-1-(4-((3-(2-(3-aminobicyclo[1.1.1]pentan-1-yl)benzo[d]oxazol-5-yl)-2-methylbenzyl)oxy)-5-chloro-2-((5-cyanopyridin-3-yl)methoxy)benzyl)piperidine-2-carboxylic Acid] | 8.00 to 8.30 | –
20 | Cc1c(COc2cc(OCc3cncc(C#N)c3)c(CN3CCCC[C@H]3C(=O)O)cc2Cl)cccc1-c1ccc2oc(C3CC4CCC(C3)O4)nc2c1 (stereo partly drawn) [Example 1018, (2S)-1-(4-((3-(2-(8-oxabicyclo[3.2.1]octan-3-yl)benzo[d]oxazol-5-yl)-2-methylbenzyl)oxy)-5-chloro-2-((5-cyanopyridin-3-yl)methoxy)benzyl)piperidine-2-carboxylic Acid] | 8.30 to 9.00 | –
21 | Cc1c(COc2cc(OCc3cncc(C#N)c3)c(C=O)cc2Cl)cccc1-c1ccc2oc(C3CCN(C)CC3)nc2c1 [Example 1019, 5-((4-chloro-2-formyl-5-((2-methyl-3-(2-(1-methylpiperidin-4-yl)benzo[d]oxazol-5-yl)benzyl)oxy)phenoxy)methyl)nicotinonitrile] | 8.00 to 8.30 | –
